This assay has as its system Vγ9Vδ2 T cells. As to the kind of experiment: Activation of Vγ9Vδ2 T cells (TNF-α, flow cytometry) by PC3 prostate carcinoma cells co-cultured with expanded PBMC. Type of assay: cell-based, human. The procedure: PC3 cells were transduced with either LV-vector, LV-BTN3A3 (R381H), or LV-BTN3A3 (WT). Three days after transduction, cells were treated with or without 1 μM zoledronic acid. After 24 hours, the transduced PC3 cells were co-cultured with 5×10^5 PBMC cells and IL-2 in a round bottom 96 well plate for 4 hours. The PBMC cells were pre-stimulated with zoledronic acid and IL-2 for 11 days to expand Vγ9Vδ2 T cells. After staining for Vγ9Vδ2 and TNF-α using fluorophore-conjugated anti TCR-Vδ2 and anti-TNF-α antibody, cells were analyzed via flow cytometry. Live cells were gated, and Vδ2+ and TNF-α+ cells were selected on a dot blot. The activated cytotoxic Vγ9Vδ2 T cells appeared in the upper right quadrant of flow cytograms. Without zoledronic acid, the percent of TNF-α expressing Vγ9Vδ2 T cells was 0.37% with LV-vector, 26.7% with BTN3A3 (R381H), and 0.44% with LV-BTN3A3 (WT). With zoledronic acid, the percent of TNF-α expressing Vγ9Vδ2 T cells was 8.91% with LV-vector, 35.2% with BTN3A3 (R381H), and 8.76% with LV-BTN3A3 (WT).
PC3 cells were transduced with LV-vector, LV-BTN3A3 (R381H), or LV-shFDPS-BTN3A3 (R381H). Three days after transduction, cells were treated with or without 1 μM zoledronic acid. After 24 hours, the transduced PC3 cells were co-cultured with 5×10^5 PBMC cells and IL-2 in a round bottom 96 well plate for 4 hours. The PBMC cells were pre-stimulated with zoledronic acid and IL-2 for 11 days to expand Vγ9Vδ2 T cells. After staining for Vγ9Vδ2 and TNF-α using fluorophore-conjugated anti TCR-Vδ2 and anti-TNF-α antibody, cells were analyzed via flow cytometry. Live cells were gated, and Vδ2+ and TNF-α+ cells were selected on a dot blot. The activated cytotoxic Vγ9Vδ2 T cells appeared in the upper right quadrant of flow cytograms. Without zoledronic acid, the percent of TNF-α expressing Vγ9Vδ2 T cells was 0.1% with LV-vector, 21.1% with BTN3A3 (R381H), and 18.2% with the combination of LV-shFDPS-BTN3A3 (R381H). With zoledronic acid, the percent of TNF-α expressing Vγ9Vδ2 T cells was 13.6% with LV-vector, 25.5% with BTN3A3 (R381H), and 39.6% with the combination of LV-shFDPS-BTN3A3 (R381H).
PC3 cells were transduced with LV-shFDPS or LV-shFDPS-IL-2. Three days after transduction, cells were treated with or without 1 μM zoledronic acid. After 24 hours, the transduced PC3 cells were co-cultured with 5×10^5 PBMC cells and with or without IL-2 in a round bottom 96 well plate for 4 hours. The PBMC cells were pre-stimulated with zoledronic acid and IL-2 for 11 days to expand Vγ9Vδ2 T cells. After staining for Vγ9Vδ2 and TNF-α using fluorophore-conjugated anti TCR-Vδ2 and anti-TNF-α antibody, cells were analyzed via flow cytometry. Live cells were gated, and Vδ2+ and TNF-α+ cells were selected on a dot blot. The activated cytotoxic Vγ9Vδ2 T cells appeared in the upper right quadrant of flow cytograms. With only zoledronic acid, the percent of TNF-α expressing Vγ9Vδ2 T cells was 24.6% with LV-shFDPS and 46.8% with LV-shFDPS-IL-2. With zoledronic acid and IL-2, the percent of TNF-α expressing Vγ9Vδ2 T cells was 48.6% with LV-shFDPS and 41% with LV-shFDPS-IL-2.
PC3 cells were transduced with LV-vector, LV-shFDPS, or LV-shFDPS-IL-15. Three days after transduction, cells were treated with or without 1 μM zoledronic acid. After 24 hours, the transduced PC3 cells were co-cultured with 5×10^5 PBMC cells and with or without IL-2 in a round bottom 96 well plate for 4 hours. The PBMC cells were pre-stimulated with zoledronic acid and IL-2 for 11 days to expand Vγ9Vδ2 T cells. After staining for Vγ9Vδ2 and TNF-α using fluorophore-conjugated anti TCR-Vδ2 and anti-TNF-α antibody, cells were analyzed via flow cytometry. Live cells were gated, and Vδ2+ and TNF-α+ cells were selected on a dot blot. The activated cytotoxic Vγ9Vδ2 T cells appeared in the upper right quadrant of flow cytograms. With only zoledronic acid, the percent of TNF-α expressing Vγ9Vδ2 T cells was 10% with LV-vector, 13% with LV-shFDPS, and 14.6% with LV-shFDPS-IL-15. […]
Background: In flow cytometry, cells or beads pass a laser one at a time.

Setting [1] is: Example 25, FIG. 29, LV-FDPS shRNA #4 transduced PC3 cells, drug 1 μM, 24 hours.
Where [2] appears, read: Example 25, FIG. 29, LV-control transduced PC3 cells, 1 μM, 24 hours, untreated 1.73%.

Consider `O=P(O)(O)C(O)(Cn1ccnc1)P(=O)(O)O` [zoledronic acid], for which the “percent of TNF-α expressing Vγ9Vδ2 T cells” value came to 8.91% (Example 3, LV-vector (control) transduced PC3 cells, 1 μM zoledronic acid); 13.6% (Example 5, LV-vector (control) transduced PC3 cells, 1 μM zoledronic acid); 10% (Example 8, LV-vector (control) transduced PC3 cells, only zoledronic acid (1 μM)); 14.5% (Example 8, LV-vector (control) transduced PC3 cells, zoledronic acid (1 μM) and IL-2); 5.71% (Example 19, LV-control transduced PC3 cells, 1 μM zoledronic acid); 8.66% (Example 23, LV-control transduced PC3 cells, 1 μM zoledronic acid). In addition, the “percent of TNF-α expressing Vγ9Vδ2 T cells” value worked out at 50.3% under setting [1] and 2.87% under setting [2].
Regarding `COC(=O)[C@H](CCSC)NC(=O)c1ccc(NC[C@@H](N)CS)cc1-c1ccccc1` [FT1277], the “percent of TNF-α expressing Vγ9Vδ2 T cells” value under setting [1] turned out to be 2.44% and the “percent of TNF-α expressing Vγ9Vδ2 T cells” value under setting [2] is reported as 1.64%.
Consider `C=C(CC[C@]12O[C@H](C(=O)O)[C@@](O)(C(=O)O)[C@](C(=O)O)(O1)[C@H](OC(=O)/C=C/[C@@H](C)C[C@@H](C)CC)[C@H]2O)[C@@H](OC(C)=O)[C@H](C)Cc1ccccc1` [zaragozic acid], for which the “percent of TNF-α expressing Vγ9Vδ2 T cells” value reads like this: (Example 25, FIG. 29, LV-FDPS shRNA #4 transduced PC3 cells, drug 5 μM, 24 hours) 2.66%; (Example 25, FIG. 29, LV-control transduced PC3 cells, 5 μM, 24 hours, untreated 1.73%) 1.57%.

For the origin of these results see US12559769B2, “Methods and compositions for the activation of tumor cytotoxicity via human gamma-delta t-cells” (priority 2017, dated 2026).
